Measured values published in patent US20110183925A1, “ANTI-INFLAMMATORY PEPTIDE” (NISSHIN PHARMA INC., priority 2008, published 2011).
Where no end group is shown, it is not given here. [ ]: non-standard residue; d: D form. pGlu = O=C1CC[C@@H](C(=O)O)N1

What was measured:
[1] = target: T1, Caspase-1 (ICE) (Homo sapiens, UniProt P29466); test: Measurement of ICE-inhibiting activity (Ac-Trp-Glu-His-Asp-AMC substrate, HPLC quantification); format: biochemical; details: 1 mg/mL peptide sample, 5 μL in reaction; 37° C., 20 minutes; Control (No Peptide) = 100%; lower = more inhibition
T1 construct: purchased Biomol; International LP
T1 sequence (P29466 120-297 limits assumed): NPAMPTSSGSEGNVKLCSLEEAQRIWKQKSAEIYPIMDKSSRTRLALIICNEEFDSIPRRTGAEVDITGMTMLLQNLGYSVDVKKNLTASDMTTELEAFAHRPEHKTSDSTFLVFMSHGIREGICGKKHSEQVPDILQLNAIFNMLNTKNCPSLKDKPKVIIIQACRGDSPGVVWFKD
T1 sequence (P29466 317-404 limits assumed): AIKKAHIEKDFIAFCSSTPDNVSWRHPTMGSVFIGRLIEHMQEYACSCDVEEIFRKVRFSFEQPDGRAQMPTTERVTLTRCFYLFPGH
Protocol: One mg/mL each of samples of pyroglutamyl peptides (pyroGlu-Leu, pyroGlu-Val, pyroGlu-Met, pyroGlu-Phe, pyroGlu-Gln-Gln, and pyroGlu-Pro-Gln) synthesized in Production Examples above were prepared and evaluated for ICE-inhibiting activity as follows.
Each sample (5 μL) was added to 10 μL of 2,000 μmol/L reactive substrate (Caspase-1 substrate (Ac-Trp-Glu-His-Asp-AMC) from Alexis Biochemicals), 5 μL of 10 U/μl enzyme solution (Caspase-1 from Biomol. International LP), 60 μL of buffer (50 mmol/L HEPES, pH 7.4, 100 mM NaCl, 0.1% CHAPS, 1 mM EDTA, 10% glycerol, and 10 mM DTT), and 20 μL of distilled water, which was reacted at 37° C. for 20 minutes. Thereto was added 10% trifluoroacetic acid to a final concentration of 1% to stop the reaction. The substrate and the product were separated under the following conditions using reversed-phase high-performance liquid chromatography. The substrate and the product were fluorescently measured at an excitation wavelength of 380 nm and a measuring wavelength of 460 nm for quantification.
(§1) (Chromatography Condition)
(§2) Solution A: 10% acetonitrile (0.1% TFA)/Solution B: 80% acetonitrile (0.1% TFA)
(§3) Gradient: Solution B from 50% to 100%
(§4) Measuring Wavelength: 230 nm
The results are shown in Table 2 below as the ratio of the fluorescence intensity of the product to the fluorescence intensity of the product and the substrate.

[2] = target: T2, Recombinant Human TACE (Homo sapiens, UniProt P78536); test: Measurement of TACE-inhibiting activity (fluorogenic substrate, HPLC quantification); format: biochemical; details: 1 mg/mL peptide sample, 10 μL in reaction; 37° C., 20 minutes; Control (No Peptide) = 100%; lower = more inhibition
T2 construct: purchased R&D Systems
Protocol: One mg/mL each of samples of pyroglutamyl peptides (pyroGlu-Leu, pyroGlu-Val, pyroGlu-Met, pyroGlu-Phe, pyroGlu-Gln-Gln, and pyroGlu-Pro-Gln) synthesized in Production Examples above were prepared and evaluated for TACE-inhibiting activity as follows.
Each sample (10 μL) was added to 10 μL of 1 μmol/L reactive substrate (TACE Substrate (Mac-PLAQAV-Dpa-RSSSR-NH2) from Biomol. International LP), 10 μL of 10 ng/10 μL enzyme solution (Recombinant Human TACE from R&D Systems), 50 μL of buffer (50 mmol/L Tris-HCl, pH 9.0, 5 μM ZnCl2, 0.01% Brij35), and 20 μL of distilled water, which was reacted at 37° C. for 20 minutes. Thereto was added 10% trifluoroacetic acid to a final concentration of 1% to stop the reaction. The substrate and the product were separated under the following conditions using reversed-phase high-performance liquid chromatography. The substrate and the product were fluorescently measured at an excitation wavelength of 320 nm and a measuring wavelength of 405 nm for quantification.
as §1, §2, §3, §4
The results are shown in Table 1 below as the ratio of the fluorescence intensity of the product to the fluorescence intensity of the product and the substrate.

T2 sequence (P78536 215-824): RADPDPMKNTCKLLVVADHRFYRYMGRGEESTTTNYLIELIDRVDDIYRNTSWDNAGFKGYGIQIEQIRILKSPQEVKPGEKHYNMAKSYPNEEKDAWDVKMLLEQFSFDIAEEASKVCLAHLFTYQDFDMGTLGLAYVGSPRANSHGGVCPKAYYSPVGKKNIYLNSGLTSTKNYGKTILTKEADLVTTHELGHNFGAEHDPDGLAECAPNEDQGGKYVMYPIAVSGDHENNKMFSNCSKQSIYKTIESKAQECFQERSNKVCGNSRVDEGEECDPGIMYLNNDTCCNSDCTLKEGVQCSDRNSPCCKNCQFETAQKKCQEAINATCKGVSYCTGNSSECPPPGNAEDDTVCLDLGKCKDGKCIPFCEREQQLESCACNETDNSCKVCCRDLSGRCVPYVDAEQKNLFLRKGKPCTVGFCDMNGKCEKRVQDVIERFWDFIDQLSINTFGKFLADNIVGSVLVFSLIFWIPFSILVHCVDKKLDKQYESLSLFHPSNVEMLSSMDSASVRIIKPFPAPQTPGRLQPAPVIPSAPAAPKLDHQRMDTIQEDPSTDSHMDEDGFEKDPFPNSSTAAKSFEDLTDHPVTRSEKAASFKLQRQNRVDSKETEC

ratio of the fluorescence intensity of the product to the fluorescence intensity of the product and the substrate (ICE/caspase-1 reaction) [1] | ratio of the fluorescence intensity of the product to the fluorescence intensity of the product and the substrate (TACE reaction) [2] | Substance
75% | 83% | [pGlu]-Met
63% | 70% | [pGlu]-Gln-Gln
72% | 84% | pyroGlu-Phe
62% | 66% | [pGlu]-Pro-Gln
55% | 61% | [pGlu]-Leu
74% | 81% | [pGlu]-Val
